{"source": "patent US20090214607A1", "about": "“Topical use of teprenone” (SEDERMA, priority 2005, published 2009)", "key": {"[1]": {"experiment": "Lipid peroxidation of liposomes using UVA radiation", "type": "biochemical", "details": "UVA induced, vs negative control", "protocol": "In order to determine the action of teprenone as per the invention, the effect of the active substance on the lipid peroxidation of liposomes was analyzed. The liposomes were used to model cutaneous lipids.\nIn this method, liposomes are exposed to the test compound and then to UV A radiation. Peroxidation is determined by spectrophotometry at 233 nm."}, "Hsp70": {"tested_on": "Hsp70", "experiment": "Hsp70 immunolabeling in UVB-irradiated human skin explants", "type": "cell-based", "details": "for Number of Hsp70 positive cells/cm: UVB 2 J/cm2, n = 3", "text": "Heat Schock proteins (Hsp) are cellular protective molecules which contribute to the correct proteinic folding, thus preserving the protein activity. Hsp 27 is a protective chaperone protein very present in the keratinocytes at the basal state. In situation of UV stress, cell increases its rate of protection and Hsp 27 is strongly overexpressed. Hsp70 is a chaperone protein less expressed in a basal state but induced in response to the UV, thermics, mechanics or infectious stress.\nHuman skin explants are treated in a similar way to the previous experiment (protection on the catalase activity): taken from a plastic surgery, they are cultivated for 48 h in the presence or not, for control, of teprenone (or trolox) at various concentrations, then irradiated or not using a source UVB (2 J/cm2). After irradiation skin explants were post-treated (24 h) or not with teprenone (or trolox) at the same concentrations.\nExplants were embedded in OCT, sectioned using a freezing microtome, and slide mounted. The mounted specimens were immunolabeled with anti-human Hsp antibody."}, "[2]": {"tested_on": "Normal human fibroblasts (FHN)", "experiment": "Replicative capacity of serially sub-cultured fibroblasts", "type": "cell-based", "text": "Normal human fibroblasts are able to divide a limited number of times: according to the literature, 30 times approximately. Progressively, the cells change morphology and become less and less suited to the mitosis: time between 2 mitoses lengthens, the cellular metabolism is very slowed down, the cells are known as senescent.\nNormal human fibroblasts (FHN) are cultivated until the “12th cycle” in order to begin the tests with cells already part-time from the duration life (=12 cycles of replication on 30 cycles), they are then separate in 3 batches: The batch control, the batch treated daily by 1 μM of teprenone and the batch daily treated with 3 μM of teprenone.\nEach plate contains ˜50 000 cells and the cells cultivated in medium DMEM, until confluency or until obtaining enough cells for the taking away of 50 000 cells necessary to the following cycle. At each time the cells are collected by trypsinisation, are counted, and aliquot of 50 000 cells seeded for the following cycle. This cycle is repeated until it is no more possible to obtain cellular multiplication."}, "NHEK": {"tested_on": "NHEK", "experiment": "NHEK cell re-colonization after scraping and irradiation", "type": "cell-based, human", "details": "3 · 10^−5%", "protocol": "NHEK were inoculated into Labtech microplates and cultured to post-confluence with or without teprenone. The cultures were then mechanically scraped and exposed to radiation at a dose level of 0, 5 or 10 Gy. The percentage area re-colonized post-irradiation was determined."}}, "data": [{"smiles": "CC(=O)CCC=C(C)CCC=C(C)CCC=C(C)CCC=C(C)C", "note": "[Teprenone, 6,10,14,18-tetramethyl-5,9,13-nonadecatetren-2-one]", "values": [{"measurement": "Variation of peroxydation", "setting": "[1]; concentration 3 · 10^−2%", "value": "−77", "unit": "%"}, {"measurement": "Variation of peroxydation", "setting": "[1]; concentration 3 · 10^−3%", "value": "−10", "unit": "%"}, {"measurement": "Variation of peroxydation", "setting": "[1]; concentration 3 · 10^−4%", "value": "−22", "unit": "%"}, {"measurement": "Variation of peroxydation", "setting": "[1]; concentration 10^−2%", "value": "−52", "unit": "%"}, {"measurement": "Variation of peroxydation", "setting": "[1]; concentration 10^−3%", "value": "−12", "unit": "%"}, {"measurement": "Hsp70: Protection vs. irradiated (%)", "setting": "Hsp70; 0.05 mM", "value": 66, "unit": "%"}, {"measurement": "Hsp70: Protection vs. irradiated (%)", "setting": "Hsp70; 0.1 mM", "value": 100, "unit": "%"}, {"measurement": "Hsp70: Protection vs. irradiated (%)", "setting": "Hsp70; 0.1 mM, listed as GGA", "value": 100, "unit": "%"}, {"measurement": "Number of Hsp70 positive cells/cm", "setting": "Hsp70; 0.05 mM", "value": 130, "unit": "cells/cm"}, {"measurement": "Number of Hsp70 positive cells/cm", "setting": "Hsp70; 0.1 mM", "value": 40, "unit": "cells/cm"}, {"measurement": "cycle until which the fibroblasts remained more active", "setting": "[2]; 1 μM", "value": 22}, {"measurement": "entry into marked senescence, later than the controls", "setting": "[2]; 1 μM", "value": 44, "unit": "days"}, {"measurement": "Nb cells (×10^3)", "setting": "[2]; 1 μM, cycle 13 (7 d)", "value": "204 ×10^3"}, {"measurement": "Nb cells (×10^3)", "setting": "[2]; 1 μM, cycle 14 (8 d)", "value": "214 ×10^3"}, {"measurement": "Nb cells (×10^3)", "setting": "[2]; 1 μM, cycle 15 (11 d)", "value": "199 ×10^3"}, {"measurement": "Nb cells (×10^3)", "setting": "[2]; 1 μM, cycle 16 (14 d)", "value": "186 ×10^3"}, {"measurement": "Nb cells (×10^3)", "setting": "[2]; 1 μM, cycle 17 (13 d)", "value": "164 ×10^3"}, {"measurement": "Nb cells (×10^3)", "setting": "[2]; 1 μM, cycle 18 (18 d)", "value": "197 ×10^3"}, {"measurement": "Nb cells (×10^3)", "setting": "[2]; 1 μM, cycle 19 (17 ds)", "value": "185 ×10^3"}, {"measurement": "Nb cells (×10^3)", "setting": "[2]; 1 μM, cycle 20 (14 d)", "value": "124 ×10^3"}, {"measurement": "Replicative capac vs control", "setting": "[2]; 1 μM, cycle 20 (14 d)", "value": "+13"}, {"measurement": "Nb cells (×10^3)", "setting": "[2]; 1 μM, cycle 21 (22 d)", "value": "130 ×10^3"}, {"measurement": "Replicative capac vs control", "setting": "[2]; 1 μM, cycle 21 (22 d)", "value": "+38"}, {"measurement": "Nb cells (×10^3)", "setting": "[2]; 1 μM, cycle 22 (20 d)", "value": "146 ×10^3"}, {"measurement": "Replicative capac vs control", "setting": "[2]; 1 μM, cycle 22 (20 d)", "value": "+117"}, {"measurement": "Nb cells (×10^3)", "setting": "[2]; 1 μM, cycle 23 (36 d)", "value": "105 ×10^3"}, {"measurement": "Replicative capac vs control", "setting": "[2]; 1 μM, cycle 23 (36 d)", "value": "+25"}, {"measurement": "Nb cells (×10^3)", "setting": "[2]; 1 μM, cycle 24 (28 d)", "value": "66 ×10^3"}, {"measurement": "Replicative capac vs control", "setting": "[2]; 1 μM, cycle 24 (28 d)", "value": "ns"}, {"measurement": "Nb cells (×10^3)", "setting": "[2]; 1 μM, cycle 25 (77 d)", "value": "59 ×10^3"}, {"measurement": "Replicative capac vs control", "setting": "[2]; 1 μM, cycle 25 (77 d)", "value": "ns"}, {"measurement": "cycle until which the fibroblasts retained their replicative potential", "setting": "[2]; 3 μM", "value": 24}, {"measurement": "fibroblast lifetime extended with no impairment of replicative capacity", "setting": "[2]; 3 μM", "value": 100, "unit": "days"}, {"measurement": "replicative potential retained, later than the controls", "setting": "[2]; 3 μM", "value": 100, "unit": "days"}, {"measurement": "activity of treated cells vs control cells after replicative potential began to subside", "setting": "[2]; 3 μM, after cycle 24", "value": "almost two-fold more active than the control cells"}, {"measurement": "Nb cells (×10^3)", "setting": "[2]; 3 μM, cycle 13 (7 d)", "value": "213 ×10^3"}, {"measurement": "Nb cells (×10^3)", "setting": "[2]; 3 μM, cycle 14 (8 d)", "value": "195 ×10^3"}, {"measurement": "Nb cells (×10^3)", "setting": "[2]; 3 μM, cycle 15 (11 d)", "value": "140 ×10^3"}, {"measurement": "Nb cells (×10^3)", "setting": "[2]; 3 μM, cycle 16 (14 d)", "value": "167 ×10^3"}, {"measurement": "Nb cells (×10^3)", "setting": "[2]; 3 μM, cycle 17 (13 d)", "value": "166 ×10^3"}, {"measurement": "Nb cells (×10^3)", "setting": "[2]; 3 μM, cycle 18 (18 d)", "value": "192 ×10^3"}, {"measurement": "Nb cells (×10^3)", "setting": "[2]; 3 μM, cycle 19 (17 ds)", "value": "198 ×10^3"}, {"measurement": "Nb cells (×10^3)", "setting": "[2]; 3 μM, cycle 20 (14 d)", "value": "145 ×10^3"}, {"measurement": "Replicative capac vs control", "setting": "[2]; 3 μM, cycle 20 (14 d)", "value": "+33"}, {"measurement": "Nb cells (×10^3)", "setting": "[2]; 3 μM, cycle 21 (22 d)", "value": "154 ×10^3"}, {"measurement": "Replicative capac vs control", "setting": "[2]; 3 μM, cycle 21 (22 d)", "value": "+64"}, {"measurement": "Nb cells (×10^3)", "setting": "[2]; 3 μM, cycle 22 (20 d)", "value": "157 ×10^3"}, {"measurement": "Replicative capac vs control", "setting": "[2]; 3 μM, cycle 22 (20 d)", "value": "+134"}, {"measurement": "Nb cells (×10^3)", "setting": "[2]; 3 μM, cycle 23 (36 d)", "value": "204 ×10^3"}, {"measurement": "Replicative capac vs control", "setting": "[2]; 3 μM, cycle 23 (36 d)", "value": "+99"}, {"measurement": "Nb cells (×10^3)", "setting": "[2]; 3 μM, cycle 24 (28 d)", "value": "115 ×10^3"}, {"measurement": "Replicative capac vs control", "setting": "[2]; 3 μM, cycle 24 (28 d)", "value": "+79"}, {"measurement": "Nb cells (×10^3)", "setting": "[2]; 3 μM, cycle 25 (77 d)", "value": "95 ×10^3"}, {"measurement": "Replicative capac vs control", "setting": "[2]; 3 μM, cycle 25 (77 d)", "value": 82}, {"measurement": "% on NHEK re-colonization 24 hours after", "setting": "NHEK; 5 Gγ", "value": "faster re-colonization"}, {"measurement": "% on NHEK re-colonization 24 hours after", "setting": "NHEK; 5 Gγ, listed as GGA", "value": 80, "unit": "%"}, {"measurement": "% on NHEK re-colonization 24 hours after", "setting": "NHEK; 10 Gγ", "value": 60, "unit": "%"}, {"measurement": "% on NHEK re-colonization 24 hours after", "setting": "NHEK; not irradiated", "value": 62, "unit": "%"}]}]}
